Laboratory results from US20230233584A1, “EXTENDED RELEASE 5-HT RECEPTOR AGONISTS FOR NEUROLOGICAL CONDITIONS” (Diamond Therapeutics Inc., priority 2020, published 2023).
“Also recorded” adds a separate entry of the source.

What was measured:
Format in all cases: in vivo
[1] = tested on: Long Evans rats; experiment: 5-CSRTT during 12-day minipump (extended release) dosing of poor performing rats; conditions: for increase in premature behaviors: minipump (ER dosing)
Experimental: The 5-choice serial reaction time task (5-CSRTT) was used to measure attentional performance in rodents. The test design involves training animals to respond to a brief visual stimulus presented unpredictably in one of five locations. Once trained to stable performance levels, the effects of experimental manipulations on response speed and choice accuracy were measured and each are related to attentional performance. The test was used to examine aspects of response control with responding prior to stimulus onset, i.e., a premature response, becoming a measure of motor impulsivity. The test is adaptable to task modification. Variations to stimulus duration (SD, 0.03-1 s duration) and frequency of stimulus presentation (2-10 s), amongst others have become commonly used to tax performance.
72 male Long Evans rats (source: Charles River, St. Constant, QE) were trained to asymptotic performance in the 5-CSRTT over a period of approximately 2 months. The rats were trained to final stimulus duration (SD) of 0.75 s, 5 s inter-trial interval (ITI), 5 s limited hold (LH), 100 trials per session. The rats were singly housed and food restricted to ˜20 g food/day throughout the study.
While the target performance levels under these conditions was in the range of >80% accuracy, <20% omissions, individual rats show different performance levels based on attentional accuracy or measures of impulsive action. The selection phase involves selecting the “worst” 40 rats based on both attentional performance (lowest performance based on accuracy measures of % correct/% hit) and/or impulsive action ([…] levels of premature responses noted at an extended 10 s ITI schedule and also baseline testing).
During the training period, 72 rats were trained on the 5-CSRTT, and the 40 worst performers. The 40 animals with the “worst” attentional performance (lowest performance based on accuracy measures of % correct, omissions and response speed) and impulsive action (PREM responses) were selected for the experiment. These 40 poor performing rats were allocated into one of two cohorts, with N=16 rats implanted with a vehicle (saline, Group A) minipumps and N=24 implanted with minipumps primed with psilocybin.
For 12 days following pump implantation surgery, rats were assessed for performance in the 5-CSRTT under (A) standard 5-CSRTT protocol (5 s ITI, 0.75 s SD, 100 trials) on days 1-4, 6-8, 10-11 (i.e. 9 days total run under this condition), and (B) the more difficult conditions of 10 s ITI, 0.3 s SD, 100 trials. The standard conditions were tested on days 1-4, 6-8, 10-11, and the more difficult conditions were tested on post-implant days 5, 9 and 12 (i.e. 3 days total run under this condition).
The result was significant on D2 (P<0.05). In FIG. 8A, B/L refers to ‘baseline’ conditions of 5 s ITI, 0.75 SD (calculated by taking the mean of the days immediately prior to and immediately following the test day). For example, B/L1 is the mean of performance on the days before and after D1 (since D1 is test day 5, B/L is mean of days 4 and 6).

[2] = tested on: Long Evans rats; experiment: 5CSRTT, acute dosing, 10 s ITI, premature (PREM) and perseverant (PSV) responses
Description: Using a longer duration between stimulus and reward, the 5CSRTT study measures premature (PREM) and perseverant (PSV) responses. PREM/PSV responses were increased by increasing the ITI from 5 s (baseline) to 10 s (test condition). […] Both PREM and PSV behaviors are examples of executive cognitive function, likely involving areas of the prefrontal cortex, a brain region rich in 5-HT2A receptors.

[3] = tested on: Long Evans rats; experiment: 5-choice serial reaction time task (5CSRTT), acute dosing, standard conditions; conditions: for pro-cognitive effect measured as % hit: p=0.05
Experimental: General: Experiments were conducted to test psilocybin doses in the range of 0.01-0.2 mg/kg psilocybin administered S.C. across progressive ratio (PR) and 5-choice serial reaction time task (5CSRTT) to examine the effect of psilocybin on endophenotypes of motivation and attention. In each study, a population of out-bred Long Evans rats was first tested as a group for response to the PR and 5CSRTT. Each group was then divided into subgroups by tertiles according to performance, and then exposed to various dose levels immediately prior to re-testing at various psilocybin dose levels.
The 5CSRTT involves evaluating test subject response to a brief visual stimulus (Higgins, Guy & Silenieks, Leonardo. (2017). Rodent Test of Attention and Impulsivity: The 5-Choice Serial Reaction Time Task: The 5-Choice Serial Reaction Time Task. 10.1002/cpph.27). Animals are trained to make a nose-poke response to a stimulus location in order to collect a food reward. The task allows the experimenter to measure animal performance in multiple domains including: • Attention • Impulsivity • Perseveration • Speed of response
A strength of the test is its flexible configuration to challenge test subjects: • Standard test conditions (0.75 s stimulus duration (SD), 5 s inter-trial interval (ITI), 100 trials) • Multiple short stimulus duration (mSD) (0.03-1 s SD) • Fixed long ITI (5 s vs. 10 s ITI) • Multiple ultrashort ITI (2-5 s ITI) • Extended 250 trials
Asterisk (*) indicates statistical significance vs. vehicle. (FIG. 3A).
When this population is segmented into tertiles according to performance based on accuracy (% correct, calculated as # correct/(# correct+# incorrect)*100), the lowest performing tertile (N=8) are considered to be low attentive and potentially representative of a low attentive endophenotype of depression (FIG. 6A). Low attentive rats also score poorly on % hit (FIG. 6B) and have a slower response speed (FIG. 6D). […] Asterisk (*) indicates statistical significance vs. vehicle.

[4] = tested on: 5-HT2A receptor activation; experiment: Motor activity and overt stereotypies during minipump dosing; conditions: psilocybin minipump, 12 days, rats
Experimental: There were no changes in motor activity (distance travelled, rearing counts), or induction of overt stereotypies, including cardinal signs of 5-HT2A receptor activation (Wet Dog Shakes and Back Muscle Contractions (WDS, BMD). At the completion of 12 days testing the rats were euthanized and cardiac and brain tissue were collected and snap frozen. Histological analysis was performed for the samples.

[5] = tested on: 5-HT2A receptor activity; experiment: Dose finding: behavioral syndrome, wet dog shakes (WDS) and back muscle contractions (BMC); conditions: rats
Experimental: Psilocybin was tested at a dose range of 0.03-10.0 mg/kg administered subcutaneously (S.C.) Behavioral syndrome including wet dog shakes (WDS) and back muscle contractions (BMC) are characteristic of 5-HT2A receptor activity and potentially indicative of psychomotor signs. […] There is a parallel between behaviors such as WDS in rats and hallucination in humans (Behavioral Neurobiology of Psychedelic Drugs, Halberstadt, Adam, Vollenweider, Franz X., Nichols, David E. (Eds.), Springer, 2018, p 161).

[6] = 0.05 mg/kg S.C., 24 rats, standard conditions
[7] = 0.05-0.1 mg/kg S.C., standard conditions

With `CN(C)CCc1c[nH]c2cccc(OP(=O)(O)O)c12` [psilocybin, 4-phosphoryloxy-N,N-dimethyltryptamine] the “mean performance on Days 1-3” value ([1]; 10 s ITI challenge days, vs. vehicle, p=0.03) was “significantly improved”, the “% correct / performance” value ([1]; 10 s ITI, Challenge Day 2 (D2, test day 9), vs vehicle) was “significant improvement; also recorded: significant (P=0.01) increase” and the “% correct responses” value ([1]; challenging conditions 10 s ITI, 0.3 s SD, test days 5, 9 and 12, vs vehicle) was “performed better than vehicle treated animals”. For the same compound, the “increase in premature behaviors” value ([1]; more taxing/challenge conditions 10 s ITI, 0.3 s SD) was “do not have an increase in premature behaviors”, the “increase in premature behaviors” value ([1]; standard conditions) was “do not have an increase in premature behaviors” and the correct attempts ([1]; minipump, standard test conditions, over a period of time) was “does not increase the number of correct attempts; also recorded: did not show that psilocybin caused an increase in correct attempts”. For the same compound, the “PREM and PSV responses” value ([2]; 0.05 mg/kg S.C., 24 rats, p=0.05) was “increase”, the “premature responses and perseverative responses” value ([2]; 0.05 and 0.1 mg/kg, low responders (N=8), p<0.01 vs vehicle) was “marked increases” and the “procognitive effect measured as % correct” value [3, 6] was “slight non-significant increase”. For the same compound, the “pro-cognitive effect measured as % hit” value [3, 6] was “increased”, the “pro-cognitive effect measured as % hit” value ([3]; 0.05 mg/kg and 0.1 mg/kg S.C., low performers) was “increased” and the response speed ([3]; 0.05 mg/kg, low attentive cohort compared with vehicle) was “increased response speed”. For the same compound, the “performance: response speed, number of trials completed” value [3, 7] was “no effect on response speed, or number of trials completed”, the “premature or perseverative responses” value [3, 7] was “no effect on premature or perseverative responses” and the “pro-cognitive effect measured as % correct” value ([3]; 0.05 and 0.1 mg/kg S.C., low performers) was “slight non-significant increase”. For the same compound, the “effect on accuracy (% correct and % hit)” value ([3]; 0.05 and 0.1 mg/kg, low attentive subgroup (N=8) compared with vehicle) was “strongly evident”, the “detrimental effects on performance (motivation, motor control, attention, response speed)” value ([3]; low doses used in PR and 5CSRTT studies (0.025-0.2 mg/kg S.C.)) was “no detrimental effects” and the “motor activity (distance travelled, rearing counts), overt stereotypies incl. WDS and BMC” value [4] was “no changes”. For the same compound, the “signs of behavioral syndrome (WDS/BMC)” value ([5]; 0.3 mg/kg I.P and higher) was “significant signs of behavior syndrome” and the “signs of behavioral syndrome (WDS/BMC)” value ([5]; 0.03-0.1 mg/kg S.C.) was “no signs of behavioral syndrome”.
